In patent publication US20070155660A1, “Inhibition of voluntary ethanol consumption with selective melanocortin 4-receptor agonists” (priority 2003, published 2007):
Numbered stars: 1 amine (or outer) side, 2 acyl side, 3 side chain; on linkers, the order of the positions; unused ones are H or OH. Bridge positions count the residues as written; N and C are the ends. Square brackets hold non-standard residues; d marks the D form. Peptide text beside a SMILES is read from it. ξ: configuration not given here. dPhe(4-Cl) = N[C@H](Cc1ccc(Cl)cc1)C(=O)O; 2Nal = N[C@@H](Cc1ccc2ccccc2c1)C(=O)O; Suc = O=C(CCC(=O)[*:2])[*:1]; ξE = NC(CCC(=O)O)C(=O)O; ξDab = NCCC(N)C(=O)O; ξK = NCCCCC(N)C(=O)O; ξDap = NCC(N)C(=O)O; Ava = NCCCCC(=O)O; GABA = NCCCC(=O)O

How the values were obtained:
MC4R [1] = target: T1, MC4R (Homo sapiens, UniProt P32245); experiment: Competitive binding assay, [125I]-NDP-α-MSH, CHO cell membranes; parameters: expressed in transfected cells; host or cells: Chinese hamster ovary (CHO) cells; details: for Selectivity Binding IC50 3R/4R: ratio of IC50 hMC-3R / hMC-4R; for Selectivity Binding IC50 5R/4R: ratio of IC50 hMC-5R / hMC-4R
Experimental: The peptides of the present invention were evaluated for […] in receptor binding assay. Crude membrane preparations were obtained from Chinese hamster ovary cells expressing human MC3, MC4, and MC5 receptors. Cells were rinsed with phosphate-buffered saline (PBS) lacking CaCl2 or MgCl2 (Life Technologies, Gaithersburg, Md., USA), and then detached with enzyme-free dissociation media (Specialty Media, Lavellette, N.J., USA). Cells were pelleted at 2800×g for 10 minutes and resuspended in membrane buffer (20 mM Tris, pH 7.2, 5 mM ethylenediaminetetraacetic acid) with 5 μg/ml leupeptin, 5 μg/ml aprotinin, 40 μg/ml bacitracin, and 25 μg/m pefabloc (Boehringer Mannheim). The cells were […] with 10 strokes by using a motor-driven Teflon-coated pestle in a glass homogenizer at low speed. The resulting cell suspension was centrifuged at 4100×g, 4° C., for 20 minutes. The pellet was resuspended in fresh membrane buffer with protease inhibitors, aliquoted, snap-frozen in liquid nitrogen, and stored at −80° C. The resulting crude membranes were titrated to determine the optimal level necessary for performing binding studies. Results
Binding reactions (total volume=[…]) contained MBB (50 mM Tris, pH 7.2, 2 mM CaCl2, 1 mM MgCl2), 0.1% bovine serum albumin, crude membranes prepared from cells expressing human MC3, MC4, or MC5 receptor, 200 pM of [125I]-NDP-α-MSH (Amersham, Arlington Heighs, Ill., USA), and increasing concentrations of unlabeled test compounds dissolved in dimethylsulfoxide (final concentration=2%). Reactions were incubated for 1 hour without shaking and then filtered through 96-well filter plates (Packard), presoaked in 1% polyethyleneimine. Filters were washed 3 times with TNE buffer (50 mM Tris, pH 7.4, 5 mM ethylenediaminetetraacetic acid, 150 mM NaCl), dried and counted by using Microscint-20 in a Topcount scintillation counter (Packard). Nonspecific binding was determined in the presence of 2 μm of unlabeled NDP-α-MSH (Peninsula Laboratories). Active peptides were evaluated in three independent experiments.
Target sequence in this assay (P32245 whole entry): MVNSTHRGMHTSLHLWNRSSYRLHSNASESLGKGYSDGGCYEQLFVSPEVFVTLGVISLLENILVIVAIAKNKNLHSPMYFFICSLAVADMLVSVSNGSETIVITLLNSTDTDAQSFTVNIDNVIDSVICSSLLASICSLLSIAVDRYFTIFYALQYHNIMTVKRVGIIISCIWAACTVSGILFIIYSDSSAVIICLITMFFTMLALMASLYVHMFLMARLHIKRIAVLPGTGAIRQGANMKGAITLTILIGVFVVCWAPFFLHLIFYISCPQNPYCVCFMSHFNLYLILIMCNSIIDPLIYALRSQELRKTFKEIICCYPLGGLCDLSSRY

MC4R [2] = target: T1, MC4R; experiment: cAMP assay in CHO cells expressing a human melanocortin receptor; assay type: cell-based; parameters: expressed in transfected cells; host or cells: Chinese hamster ovary (CHO) cells; details: for Selectivity cAMP EC50 3R/4R: ratio of EC50 hMC-3R / hMC-4R; for Selectivity cAMP EC50 5R/4R: ratio of EC50 hMC-5R / hMC-4R
Experimental: (§1) Chinese hamster ovary cells expressing a human melanocortin receptor were rinsed with calcium-and magnesium-free PBS (Life Technologies), and detached from the tissue culture flasks by 5-minutes incubation with enzyme-free dissociation buffer (S-014-B, Specialty Media). Cells were collected by centrifugation and resuspended in Earle's balanced salt solution (Life Technologies) with addition of 10 mM 4-(2-hydroxyethyl)-1-piperazineethanesulfonic acid (Hepes) buffer, pH 7.5, 5 mM MgCl2, 1 mM glutamine, and 1 mg/ml bovine serum albumin to concentration of 1-5×10^6 cells/ml. Subsequently, cells were counted and the cell suspension was treated with the phosphodiesterase inhibitor 3-isobutyl-1-methylxanthine (to concentration of 0.6 mM).
(§2) A test compound was dissolved in dimethyl sulfoxide (DMSO, 10^−3 to 10^−8 M), diluted with buffer and 0.1 volume of the solution was added to 0.9 volumes of the cell suspension (1 to 5×10^5 cells); final concentration of DMSO was 1%. After 45 minutes at room temperature, cells were lysed by incubation at 100° C. for 5 minutes to release accumulated cAMP. Accumulation of cAMP was measured in an aliquot of the cell lysate with the Amersham (Arlington Heights, Ill.) cAMP detection assay kit (RPA556). The amount of cAMP produced in response to a tested compound was compared to the amount of cAMP produced in response to α-MSH, defined as a 100% agonist. All active peptides were characterized in three independent experiments.
Target sequence in this assay (P32245 whole entry): as above

MC5R [3] = target: T2, MC5R (Homo sapiens, UniProt P33032); experiment: as above; assay type: cell-based; parameters: expressed in transfected cells; host or cells: Chinese hamster ovary (CHO) cells; details: @ 5 (concentration unit not given); cAMP relative to α-MSH defined as 100% agonist
Experimental: as §1, §2
Target sequence in this assay (P33032 whole entry): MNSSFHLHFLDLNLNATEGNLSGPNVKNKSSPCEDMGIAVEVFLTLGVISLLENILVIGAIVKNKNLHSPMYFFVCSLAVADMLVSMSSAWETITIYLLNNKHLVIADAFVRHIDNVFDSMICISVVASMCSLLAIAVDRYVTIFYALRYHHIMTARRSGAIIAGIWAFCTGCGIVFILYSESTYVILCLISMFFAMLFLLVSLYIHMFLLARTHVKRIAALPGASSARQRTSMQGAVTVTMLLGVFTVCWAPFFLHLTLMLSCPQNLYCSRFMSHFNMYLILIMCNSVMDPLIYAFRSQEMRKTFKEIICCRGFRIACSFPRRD

AA rats = details: MTII by central infusion; cited from earlier work
C57BL/6J mice = experiment: Ethanol consumption following central (i.c.v.) infusion of MC4R agonist; assay type: in vivo; details: for reduction of alcohol consumption: 20% ethanol, vs aCSF
Text: The generation of Mc3r^−/− mice has been described (Chen, S. et al., Nature Genetics (2000) 26: 97-102). Mc3r^−/− mice are born at the expected frequency and are viable and fertile. […] Studies described below utilized male and female Mc3r^−/− and/or Mc3r^+/+ mice of a C57BL/6J genetic background, 8 to 12 weeks of age at the start of experiment. Non-littermate heterozygous (Mc3r^+/−) mice were bred, resulting in Mc3r^−/− and Mc3r ^+/+ F2 littermate mice. Mice were individually housed in polypropylene cages with wood-chip bedding and had ad libitum access to standard rodent chow (Teklad, Madison, Wis.) and water throughout the experiments except where noted. The colony room was maintained at approximately 22° C. with a 12h:12h light:dark cycle. All procedures used in the present research were in compliance with the National Institute of Health guidelines, and the protocols were approved by the University of North Carolina Animal Care and Use Committee.
Naïve mice were anesthetized with a cocktail of ketamine (117 mg/kg) and xylazine (7.92 mg/kg) and surgically implanted with a 26-gauge cannula (Plastic One, Roanoke, Va.) aimed at the left-lateral ventricle using the following stereotaxic coordinates: 0.2 mm posterior to bregma, 1.0 mm lateral to the midline, and 2.3 mm ventral to the skull surface. Mice were allowed to recover for approximately 2 weeks before experimental procedures were initiated. After experimental procedures, cannula placement was verified histologically. The i.c.v. infusions were given in a 1.0 μl volume with a 5.0 μl Hamilton syringe and infused manually over a one minute period. Mice were acclimated for approximately 2 weeks to drinking from two bottles (continuous 24 hour/day access), one containing water and the other containing 20% ethanol, and body weights were recorded weekly. Following acclimation, mice were distributed to groups based on the last 4-days of baseline ethanol consumption (g/kg/day).
Mice were weighed and ethanol, water, and food were removed from their cages two hours before the beginning of the dark cycle. For the study with i.c.v. infusion of MC4R agonist, C57B1/6J mice were given infusion of either 1.0 or 3.0 μg of the MC4R-selective agonist, cyclo(NH—CH2—CH2—CO-His-D-Phe-Arg-Trp-Glu)-NH2 (Compound A, Phoenix Pharmaceuticals, Inc., Belmont, Calif.) dissolved in aCSF (ns=7 and 8, respectively) or an equal volume of aCSF (n=10) one hour before the beginning of the dark cycle. The 20% ethanol solution, water, and food were returned immediately before the dark cycle and consumption measures were recorded 4 hours and 24 hours later. One-way (drug) ANOVAs were used to assess consumption of 20% ethanol following i.c.v. infusion of MC4R agonist or aCSF.

MC4R [4] = target: T1, MC4R; details: cited from earlier work
Target sequence in this assay (P32245 whole entry, species assumed): as the sequence (P32245 whole entry) above

MC5R [5] = target: T2, MC5R; details: cited from earlier work
Target sequence in this assay (P33032 whole entry, species assumed): as the sequence (P33032 whole entry) above

Row | Compound | Selectivity Binding IC50 3R/4R (MC4R [1]) | Selectivity Binding IC50 5R/4R (MC4R [1]) | Selectivity cAMP EC50 3R/4R (MC4R [2]) | Selectivity cAMP EC50 5R/4R (MC4R [2]) | further results
1 | N=C(N)NCCC[C@@H]1NC(=O)[C@@H](Cc2ccccc2)NC(=O)[C@H](Cc2c[nH]cn2)NC(=O)CCC(=O)NCCCCC(C(N)=O)NC(=O)[C@H](Cc2c[nH]c3ccccc23)NC1=O (stereo partly shown) [Example 1] (H[dF]RW[ξK]-NH2; linker N-5 via Suc) | 16.7 | 124 | 33 | 357 | 
2 | N=C(N)NCCC[C@@H]1NC(=O)[C@@H](Cc2ccccc2)NC(=O)[C@H](Cc2c[nH]cn2)NC(=O)CCC(=O)NCCC(C(N)=O)NC(=O)[C@H](Cc2c[nH]c3ccccc23)NC1=O (stereo partly shown) [Example 2] (H[dF]RW[ξDab]-NH2; linker N-5 via Suc) | 51.3 | 205 | 83 | 758 | 
3 | N=C(N)NCCC[C@@H]1NC(=O)[C@@H](Cc2ccccc2)NC(=O)[C@H](Cc2c[nH]cn2)NC(=O)CCC(=O)NCC(C(N)=O)NC(=O)[C@H](Cc2c[nH]c3ccccc23)NC1=O (stereo partly shown) [Example 3] (H[dF]RW[ξDap]-NH2; linker N-5 via Suc) | 22.5 | 50.7 | 17.8 |  | cAMP Assay hMC-5R, % @ 5 (MC5R [3]): 12% @ 5
4 | N=C(N)NCCC[C@@H]1NC(=O)[C@@H](Cc2ccc(Cl)cc2)NC(=O)[C@H](Cc2c[nH]cn2)NC(=O)CCC(=O)NCCCCC(C(N)=O)NC(=O)[C@H](Cc2c[nH]c3ccccc23)NC1=O (stereo partly shown) [Example 4] (H[dPhe(4-Cl)]RW[ξK]-NH2; linker N-5 via Suc) | 10 | 54 | 54 | 229.7 | 
5 | N=C(N)NCCC[C@@H]1NC(=O)[C@@H](Cc2ccccc2)NC(=O)[C@H](Cc2c[nH]cn2)NC(=O)CCC(=O)NCCCCC(C(N)=O)NC(=O)[C@H](Cc2ccc3ccccc3c2)NC1=O (stereo partly shown) [Example 5] (H[dF]R[2Nal][ξK]-NH2; linker N-5 via Suc) | 33.85 | 1538 | 97.3 | 1351.3 | 
6 | N=C(N)NCCC[C@@H]1NC(=O)[C@@H](Cc2ccccc2)NC(=O)[C@H](Cc2c[nH]cn2)NC(=O)CCCCNC(=O)CCC(C(N)=O)NC(=O)[C@H](Cc2c[nH]c3ccccc23)NC1=O (stereo partly shown) [Example 6] ([Ava]H[dF]RW[ξE]-NH2; lactam N-6) | 48 | 750 | 70.4 | 703.7 | 
7 | N=C(N)NCCC[C@@H]1NC(=O)[C@@H](Cc2ccccc2)NC(=O)[C@H](Cc2c[nH]cn2)NC(=O)CCCNC(=O)CCC(C(N)=O)NC(=O)[C@H](Cc2c[nH]c3ccccc23)NC1=O (stereo partly shown) [Example 7] ([GABA]H[dF]RW[ξE]-NH2; lactam N-6) | 44 | 121.9 | 54.39 | 877 | 
8 | N=C(N)NCCC[C@@H]1NC(=O)[C@@H](Cc2ccccc2)NC(=O)[C@H](Cc2c[nH]cn2)NC(=O)CNC(=O)CCC(C(N)=O)NC(=O)[C@H](Cc2c[nH]c3ccccc23)NC1=O (stereo partly shown) [Example 9] (GH[dF]RW[ξE]-NH2; lactam N-6) | 3.45 | 3.45 | 62.86 |  | cAMP Assay hMC-5R, % @ 5 (MC5R [3]): 15% @ 5
9 | MTII |  |  |  |  | effect on voluntary ethanol drinking (AA rats): significantly reduces voluntary ethanol drinking
10 | cyclo(NH—CH2—CH2—CO-His-D-Phe-Arg-Trp-Glu)-NH2 (FRWE; cyclic with beta-alanine linker, His, C-terminal amide; printed: Phe-Arg-Trp-Glu) [Compound A] |  |  |  |  | reduction of alcohol consumption (C57BL/6J mice; 1.0 μg i.c.v.): 67%; reduction of alcohol consumption (C57BL/6J mice; 3.0 μg i.c.v.): 86%; effect on ethanol drinking (C57BL/6J mice; C57BL/6J mice): significant reduction of ethanol drinking; less alcohol consumed than untreated controls (C57BL/6J mice; C57BL/6J mice, dose not given): up to 86%; selectivity for MC4R over MC3R (MC4R [4]): 90 fold; selectivity for MC4R over MC5R (MC4R [4]): greater than 2000 fold; binding and activation of MC5R (MC5R [5]): extremely weak binding and activation of MC5R
